# Measurements published in US9346809B2 (LEO PHARMA A/S, priority 2009, dated 2016).
# How the values were obtained:
# Format in all cases: biochemical
# [1] = target: T1, JAK1 (aa 850-1154, catalytic domain, GST-tag) (Homo sapiens, UniProt P23458); assay: JAK kinase assay (HTRF, phosphorylation of TK substrate-biotin), JAK1; conditions: ATP at Km (7 μM); read-out: JAK1 kinase inhibitory activity (EC50 indicator)
# T1 construct: JAK1 (aa 850-1154) and TYK2 (aa 871-1187) are expressed with an N-terminally fused GST-tag; GST (N); purchased Carna Biosciences, Inc; host or cells: baculovirus expression system
# Procedure: (§1) Human baculovirus-expressed JAK1, 2, 3 and TYK2 were purchased from Carna Biosciences, Inc. All four purified enzymes contain only the catalytic domain. JAK1 (aa 850-1154) and TYK2 (aa 871-1187) are expressed with an N-terminally fused GST-tag, and JAK2 and JAK3 with an N-terminally fused His-tag.
# (§2) Inhibition of phosphorylation of a synthetic peptide was measured in an HTRF-based assay using the TK substrate-Biotin from the Cisbio HTRFKinEASE TK kit. First, 2 μl of TK solution (TK substrate-biotin in kinase buffer [1× enzymatic buffer from HTRFKinEASE TK kit, 1 mM DTT]) is added to a plate containing 1 μl prediluted compound (final assay concentration DMSO: 0.75%). Then, 5 μl kinase-ATP mix (prepared in kinase buffer) is added to the wells and the plates are incubated at RT for 20-30 min. For all four kinases a concentration of ATP that corresponded to the Km for ATP was used. The final concentrations of buffers, substrate, kinase and ATP were: JAK1: 50 mM Hepes buffer pH 7.0, 0.01% BSA, 10 mM MgCl2, 1 mM DTT, 7 μM ATP, 50 nM SEB, 1 μM TK Substrate-Biotin and 5 ng JAK1; JAK2: 50 mM Hepes buffer pH 7.0, 0.01% BSA, 5 mM MgCl2, 1 mM DTT, 4 μM ATP, 1 μM TK Substrate-Biotin and 0.1 ng JAK2; JAK3: 50 mM Hepes buffer pH 7.0, 0.01% BSA, 5 mM MgCl2, 1 mM DTT, 2 μM ATP, 1 μM TK Substrate-Biotin and 0.3 ng JAK3; TYK2: 50 mM Hepes buffer pH 7.0, 0.01% BSA, 5 mM MgCl2, 1 mM DTT, 13 μM ATP, 50 nM SEB, 1 μM TK Substrate-Biotin and 0.8 ng TYK2. Thereafter, the kinase reaction is stopped by adding 4 μl detection mix (final concentrations: 50 mM Hepes buffer pH 7.0, 0.01% BSA, 0.8 M KF, 20 mM EDTA, 42 nM Streptavidin-XL665 and 1:400 STK Ab Cryptate) and the plates are incubated overnight in the dark. The HTRF signal is read using an Envision plate reader.
# (§3) In Table 1 selected JAK kinase inhibitory activities are listed with the following indicators: I: EC50<100 nM, II: 100 nM≦EC50≦500 nM and III: EC50>500 nM
# [2] = target: T2, JAK2 (catalytic domain, His-tag) (Homo sapiens, UniProt O60674); assay: JAK kinase assay (HTRF, phosphorylation of TK substrate-biotin), JAK2; conditions: ATP at Km (4 μM); read-out: JAK2 kinase inhibitory activity (EC50 indicator)
# T2 construct: All four purified enzymes contain only the catalytic domain; His (N); purchased Carna Biosciences, Inc; host or cells: baculovirus expression system
# Procedure: as §1, §2, §3
# [3] = target: T3, JAK3 (catalytic domain, His-tag) (Homo sapiens, UniProt P52333); assay: JAK kinase assay (HTRF, phosphorylation of TK substrate-biotin), JAK3; conditions: ATP at Km (2 μM); read-out: JAK3 kinase inhibitory activity (EC50 indicator)
# T3 construct: All four purified enzymes contain only the catalytic domain; His (N); purchased Carna Biosciences, Inc; host or cells: baculovirus expression system
# Procedure: as §1, §2, §3
# [4] = target: T4, TYK2 (aa 871-1187, catalytic domain, GST-tag) (Homo sapiens, UniProt P29597); assay: JAK kinase assay (HTRF, phosphorylation of TK substrate-biotin), TYK2; conditions: ATP at Km (13 μM); read-out: TYK2 kinase inhibitory activity (EC50 indicator)
# T4 construct: JAK1 (aa 850-1154) and TYK2 (aa 871-1187) are expressed with an N-terminally fused GST-tag; GST (N); purchased Carna Biosciences, Inc; host or cells: baculovirus expression system
# T4 sequence (P29597 871-1187): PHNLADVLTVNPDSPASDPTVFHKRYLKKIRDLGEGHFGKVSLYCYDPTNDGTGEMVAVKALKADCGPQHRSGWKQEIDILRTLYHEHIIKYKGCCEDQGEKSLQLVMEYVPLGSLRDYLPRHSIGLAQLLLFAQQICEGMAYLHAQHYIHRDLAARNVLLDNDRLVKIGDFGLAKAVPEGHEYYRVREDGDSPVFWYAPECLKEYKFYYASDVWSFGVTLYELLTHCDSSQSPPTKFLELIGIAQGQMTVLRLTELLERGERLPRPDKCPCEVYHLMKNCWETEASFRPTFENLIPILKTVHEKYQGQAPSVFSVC
# Procedure: as §1, §2, §3
# T2 sequence (O60674 849-1124 limits assumed): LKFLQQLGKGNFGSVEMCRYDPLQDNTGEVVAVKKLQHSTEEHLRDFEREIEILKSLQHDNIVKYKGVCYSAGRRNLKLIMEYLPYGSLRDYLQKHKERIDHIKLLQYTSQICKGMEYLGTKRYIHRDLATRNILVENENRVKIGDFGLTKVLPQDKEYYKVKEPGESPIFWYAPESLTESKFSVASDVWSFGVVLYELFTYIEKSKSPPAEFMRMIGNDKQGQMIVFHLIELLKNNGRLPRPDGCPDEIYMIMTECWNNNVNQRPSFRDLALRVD
# T3 sequence (P52333 822-1111 limits assumed): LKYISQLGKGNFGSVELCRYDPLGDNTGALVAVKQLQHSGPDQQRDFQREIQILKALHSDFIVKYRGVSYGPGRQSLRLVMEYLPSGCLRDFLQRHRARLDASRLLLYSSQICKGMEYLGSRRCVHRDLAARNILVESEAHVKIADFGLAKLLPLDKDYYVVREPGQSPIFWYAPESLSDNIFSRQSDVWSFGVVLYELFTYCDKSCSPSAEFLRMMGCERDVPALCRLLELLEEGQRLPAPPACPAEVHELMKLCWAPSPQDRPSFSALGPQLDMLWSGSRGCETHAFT
# T1 sequence (P23458 850-1154): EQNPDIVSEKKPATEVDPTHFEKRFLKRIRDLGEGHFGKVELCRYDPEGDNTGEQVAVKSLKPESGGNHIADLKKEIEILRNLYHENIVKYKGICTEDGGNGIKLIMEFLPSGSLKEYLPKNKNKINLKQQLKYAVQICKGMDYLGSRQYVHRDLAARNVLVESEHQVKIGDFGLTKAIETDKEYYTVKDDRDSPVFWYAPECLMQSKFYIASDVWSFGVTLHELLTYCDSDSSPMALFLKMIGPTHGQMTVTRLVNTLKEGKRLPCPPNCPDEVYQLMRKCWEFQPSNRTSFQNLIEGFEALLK
EC50 [1] [nM],EC50 [2] [nM],EC50 [3] [nM],EC50 [4] [nM],Structure (SMILES)
100 to 500,> 500,> 500,> 500,"Cc1ccc(C(=O)N2CCN(c3ncnc4[nH]ccc34)CC23CC3)cc1C(=O)Nc1cccc(C(F)(F)F)c1 [Example 41, 2-Methyl-5-[7-(7H-pyrrolo[2,3-d]pyrimidin-4-yl)-4,7-diazaspiro[2.5]octane-4-carbonyl]-N-(3-trifluoromethylphenyl)benzamide]"
< 100,< 100,100 to 500,> 500,"O=C(c1cccnc1)N1CCN(c2ncnc3[nH]ccc23)CC12CC2 [Example 42, Pyridin-3-yl-[7-(7H-pyrrolo[2,3-d]pyrimidin-4-yl)-4,7-diazaspiro[2.5]oct-4-yl]methanone]"
100 to 500,100 to 500,100 to 500,> 500,"CC(=O)N1CCC(C(=O)N2CCN(c3ncnc4[nH]ccc34)CC23CC3)CC1 [Example 43, 1-{4-[7-(7H-Pyrrolo[2,3-d]pyrimidin-4-yl)-4,7-diazaspiro[2.5]octane-4-carbonyl]piperidin-1-yl}ethanone]"
< 100,< 100,< 100,< 100,"N#Cc1cccc(C(=O)N2CCN(c3ncnc4[nH]ccc34)CC23CC3)c1 [Example 44, 3-[7-(7H-Pyrrolo[2,3-d]pyrimidin-4-yl)-4,7-diazaspiro[2.5]octane-4-carbonyl]benzonitrile]"
< 100,< 100,< 100,> 500,"CC(C)(C)OC(=O)N1CCN(c2ncnc3[nH]ccc23)CC12CC2 [Example 45, 7-(7H-pyrrolo[2,3-d]pyrimidin-4-yl)-4,7-diazaspiro[2.5]octane-4-carboxylic acid tert-butyl ester]"
100 to 500,100 to 500,> 500,> 500,"O=C(NC1CCCCC1)N1[C@@H]2CC[C@H]1CN(c1ncnc3[nH]ccc13)C2 [Example 46, 3-(7H-Pyrrolo[2,3-d]pyrimidin-4-yl)-3,8-diaza-bicyclo[3.2.1]octane-8-carboxylic acid cyclohexylamide]"
100 to 500,100 to 500,100 to 500,> 500,"O=C1OCCC1NC(=S)N1[C@@H]2CC[C@H]1CN(c1ncnc3[nH]ccc13)C2 (some centres unmarked) [Example 47, 3-(7H-Pyrrolo[2,3-d]pyrimidin-4-yl)-3,8-diaza-bicyclo[3.2.1]octane-8-carbothioic acid (2-oxo-tetrahydro-furan-3-yl)-amide]"
< 100,< 100,100 to 500,> 500,"O=C(c1ccc(C(F)(F)F)cc1)N1CCN(c2ncnc3[nH]ccc23)CC12CC2 [Example 48, [7-(7H-Pyrrolo[2,3-d]pyrimidin-4-yl)-4,7-diaza-spiro[2.5]oct-4-yl]-(4-trifluoromethylphenyl)methanone]"
< 100,< 100,100 to 500,> 500,"NC(=O)c1ccc(C(=O)N2CCN(c3ncnc4[nH]ccc34)CC23CC3)cc1 [Example 49, 4-[7-(7H-Pyrrolo[2,3-d]pyrimidin-4-yl)-4,7-diazaspiro[2.5]octane-4-carbonyl]benzamide]"
> 500,> 500,> 500,> 500,"CC(=O)N1CCCC1C(=O)N1CCN(c2ncnc3[nH]ccc23)CC12CC2 (centres unmarked) [Example 50, 1-{2-[7-(7H-Pyrrolo[2,3-d]pyrimidin-4-yl)-4,7-diazaspiro[2.5]octane-4-carbonyl]pyrrolidin-1-yl}ethanone]"
100 to 500,100 to 500,> 500,> 500,"CCCS(=O)(=O)N1[C@@H]2CC[C@H]1CN(c1ncnc3[nH]ccc13)C2 [Example 51, 4-[8-(Propane-1-sulfonyl)-3,8-diaza-bicyclo[3.2.1]oct-3-yl]-7H-pyrrolo[2,3-d]pyrimidine]"
100 to 500,< 100,100 to 500,100 to 500,"CCOC(=O)N1[C@@H]2CC[C@H]1CN(c1ncnc3[nH]ccc13)C2 [Example 52, 3-(7H-Pyrrolo[2,3-d]pyrimidin-4-yl)-3,8-diazabicyclo[3.2.1]octane-8-carboxylic acid ethyl ester]"
100 to 500,100 to 500,100 to 500,> 500,"N#CCC(=O)N1[C@@H]2CC[C@H]1CN(c1ncnc3[nH]ccc13)C2 [Example 53, 3-Oxo-3-[3-(7H-pyrrolo[2,3-d]pyrimidin-4-yl)-3,8-diazabicyclo[3.2.1]oct-8-yl]propionitrile]"
< 100,< 100,< 100,> 500,"N#CCC(=O)N1CCN(c2ncnc3[nH]ccc23)CC12CC2 [Example 54, 3-Oxo-3-[7-(7H-pyrrolo[2,3-d]pyrimidin-4-yl)-4,7-diazaspiro[2.5]oct-4-yl]propionitrile]"
< 100,< 100,< 100,100 to 500,"O=C(c1cc2ccccc2[nH]1)N1CCN(c2ncnc3[nH]ccc23)CC12CC2 [Example 55, (1H-Indol-2-yl)-[7-(7H-pyrrolo[2,3-d]pyrimidin-4-yl)-4,7-diazaspiro[2.5]oct-4-yl]methanone]"
< 100,< 100,100 to 500,> 500,"O=C(c1ccc(=O)[nH]c1)N1CCN(c2ncnc3[nH]ccc23)CC12CC2 [Example 56, 5-[7-(7H-Pyrrolo[2,3-d]pyrimidin-4-yl)-4,7-diazaspiro[2.5]octane-4-carbonyl]-1H-pyridin-2-one]"
100 to 500,100 to 500,> 500,> 500,"O=C(c1cccnc1)N1[C@@H]2CC[C@H]1CN(c1ncnc3[nH]ccc13)C2 [Example 57, Pyridin-3-yl-[3-(7H-pyrrolo[2,3-d]pyrimidin-4-yl)-3,8-diazabicyclo[3.2.1]oct-8-yl]methanone]"
< 100,< 100,100 to 500,> 500,"O=C(OCc1ccccc1)N1[C@@H]2CC[C@H]1CN(c1ncnc3[nH]ccc13)C2 [Example 58, 3-(7H-Pyrrolo[2,3-d]pyrimidin-4-yl)-3,8-diazabicyclo[3.2.1]octane-8-carboxylic acid benzyl ester]"
100 to 500,100 to 500,100 to 500,> 500,"C#CCOC(=O)N1[C@@H]2CC[C@H]1CN(c1ncnc3[nH]ccc13)C2 [Example 59, 3-(7H-Pyrrolo[2,3-d]pyrimidin-4-yl)-3,8-diazabicyclo[3.2.1]octane-8-carboxylic acid prop-2-ynyl ester]"
< 100,< 100,< 100,< 100,"N#Cc1csc(C(=O)N2CCN(c3ncnc4[nH]ccc34)CC23CC3)c1 [Example 60, 5-[7-(7H-Pyrrolo[2,3-d]pyrimidin-4-yl)-4,7-diaza-spiro[2.5]octane-4-carbonyl]-thiophene-3-carbonitrile]"
